In patent publication US9840520B2, “Heterocyclic hydroxamic acids as protein deacetylase inhibitors and dual protein deacetylase-protein kinase inhibitors and methods of use thereof” (The Regents of the University of Colorado, A Body Corporate, priority 2014, dated 2017):

Key:
HDAC-1 = HDAC-1 (Homo sapiens, UniProt Q13547); experiment: HDAC Fluorescent Activity Assay (Fluor de Lys), HDAC-1
HDAC-2 = HDAC-2 (Homo sapiens, UniProt Q92769); experiment: HDAC Fluorescent Activity Assay (Fluor de Lys), HDAC-2
HDAC-3 = HDAC-3 (Homo sapiens, UniProt O15379); experiment: HDAC Fluorescent Activity Assay (Fluor de Lys), HDAC-3
HDAC-8 = HDAC-8 (Homo sapiens, UniProt Q9BY41); experiment: HDAC Fluorescent Activity Assay (Fluor de Lys), HDAC-8
HDAC-4 = HDAC-4 (Homo sapiens, UniProt P56524); experiment: HDAC Fluorescent Activity Assay (Fluor de Lys), HDAC-4
HDAC-5 = HDAC-5 (Homo sapiens, UniProt Q9UQL6); experiment: HDAC Fluorescent Activity Assay (Fluor de Lys), HDAC-5
HDAC-7 = HDAC-7 (Homo sapiens, UniProt Q8WUI4); experiment: HDAC Fluorescent Activity Assay (Fluor de Lys), HDAC-7
HDAC-9 = HDAC-9 (Homo sapiens, UniProt Q9UKV0); experiment: HDAC Fluorescent Activity Assay (Fluor de Lys), HDAC-9
HDAC-6 = HDAC-6 (Homo sapiens, UniProt Q9UBN7); experiment: HDAC Fluorescent Activity Assay (Fluor de Lys), HDAC-6
HDAC-10 = HDAC-10 (Homo sapiens, UniProt Q969S8); experiment: HDAC Fluorescent Activity Assay (Fluor de Lys), HDAC-10
HDAC-11 = HDAC-11 (Homo sapiens, UniProt Q96DB2); experiment: HDAC Fluorescent Activity Assay (Fluor de Lys), HDAC-11
ovarian xenograft = conditions: cited from earlier work
TTK/Mps1 = TTK/Mps1 (Homo sapiens, UniProt P33981); conditions: TTK/Mps1 inhibitors of the literature; cited from earlier work

Sequence of HDAC-10 (Q969S8 whole entry): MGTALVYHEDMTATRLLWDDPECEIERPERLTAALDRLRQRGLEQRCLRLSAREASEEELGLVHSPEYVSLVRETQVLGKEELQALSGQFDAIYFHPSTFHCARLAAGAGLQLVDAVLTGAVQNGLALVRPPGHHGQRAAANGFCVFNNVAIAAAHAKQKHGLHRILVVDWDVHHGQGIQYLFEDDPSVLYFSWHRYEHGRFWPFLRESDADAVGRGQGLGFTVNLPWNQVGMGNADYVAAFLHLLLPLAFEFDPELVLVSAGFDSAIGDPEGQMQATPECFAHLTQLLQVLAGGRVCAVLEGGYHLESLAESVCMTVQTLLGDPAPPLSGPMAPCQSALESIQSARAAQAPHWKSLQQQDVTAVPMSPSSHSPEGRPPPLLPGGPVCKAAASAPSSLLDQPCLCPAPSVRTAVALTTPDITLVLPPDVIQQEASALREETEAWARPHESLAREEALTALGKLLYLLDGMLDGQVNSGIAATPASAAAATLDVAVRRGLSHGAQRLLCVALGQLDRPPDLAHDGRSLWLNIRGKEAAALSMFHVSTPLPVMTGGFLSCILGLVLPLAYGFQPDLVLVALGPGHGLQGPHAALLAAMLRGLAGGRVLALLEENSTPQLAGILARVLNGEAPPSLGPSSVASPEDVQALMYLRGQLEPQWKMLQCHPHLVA
Sequence of HDAC-9 (Q9UKV0 whole entry): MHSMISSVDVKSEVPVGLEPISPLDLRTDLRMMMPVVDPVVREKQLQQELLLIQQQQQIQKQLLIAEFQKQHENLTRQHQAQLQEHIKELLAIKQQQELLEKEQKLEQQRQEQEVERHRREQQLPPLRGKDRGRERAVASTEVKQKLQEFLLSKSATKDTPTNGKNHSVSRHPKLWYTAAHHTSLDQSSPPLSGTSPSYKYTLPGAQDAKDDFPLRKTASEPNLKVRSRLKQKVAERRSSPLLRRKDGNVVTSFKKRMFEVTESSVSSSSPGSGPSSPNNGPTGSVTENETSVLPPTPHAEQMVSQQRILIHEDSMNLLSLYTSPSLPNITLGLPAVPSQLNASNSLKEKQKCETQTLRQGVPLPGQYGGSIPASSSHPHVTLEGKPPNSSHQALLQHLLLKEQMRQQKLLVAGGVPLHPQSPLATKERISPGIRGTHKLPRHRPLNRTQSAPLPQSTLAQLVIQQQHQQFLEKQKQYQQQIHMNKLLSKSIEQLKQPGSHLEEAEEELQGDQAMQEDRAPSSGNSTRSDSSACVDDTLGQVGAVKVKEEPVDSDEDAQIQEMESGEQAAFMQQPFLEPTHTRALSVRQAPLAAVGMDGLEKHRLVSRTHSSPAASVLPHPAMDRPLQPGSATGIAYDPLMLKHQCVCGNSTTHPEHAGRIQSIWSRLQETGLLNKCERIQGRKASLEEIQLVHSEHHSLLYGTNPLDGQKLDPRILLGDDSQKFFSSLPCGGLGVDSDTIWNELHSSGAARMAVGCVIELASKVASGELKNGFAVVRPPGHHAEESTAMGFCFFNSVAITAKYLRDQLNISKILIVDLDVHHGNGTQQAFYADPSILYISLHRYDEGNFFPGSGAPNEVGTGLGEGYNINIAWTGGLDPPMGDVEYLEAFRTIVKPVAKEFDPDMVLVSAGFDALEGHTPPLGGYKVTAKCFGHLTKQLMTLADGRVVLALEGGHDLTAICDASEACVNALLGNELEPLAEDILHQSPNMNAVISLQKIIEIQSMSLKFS
Sequence of HDAC-7 (Q8WUI4 whole entry): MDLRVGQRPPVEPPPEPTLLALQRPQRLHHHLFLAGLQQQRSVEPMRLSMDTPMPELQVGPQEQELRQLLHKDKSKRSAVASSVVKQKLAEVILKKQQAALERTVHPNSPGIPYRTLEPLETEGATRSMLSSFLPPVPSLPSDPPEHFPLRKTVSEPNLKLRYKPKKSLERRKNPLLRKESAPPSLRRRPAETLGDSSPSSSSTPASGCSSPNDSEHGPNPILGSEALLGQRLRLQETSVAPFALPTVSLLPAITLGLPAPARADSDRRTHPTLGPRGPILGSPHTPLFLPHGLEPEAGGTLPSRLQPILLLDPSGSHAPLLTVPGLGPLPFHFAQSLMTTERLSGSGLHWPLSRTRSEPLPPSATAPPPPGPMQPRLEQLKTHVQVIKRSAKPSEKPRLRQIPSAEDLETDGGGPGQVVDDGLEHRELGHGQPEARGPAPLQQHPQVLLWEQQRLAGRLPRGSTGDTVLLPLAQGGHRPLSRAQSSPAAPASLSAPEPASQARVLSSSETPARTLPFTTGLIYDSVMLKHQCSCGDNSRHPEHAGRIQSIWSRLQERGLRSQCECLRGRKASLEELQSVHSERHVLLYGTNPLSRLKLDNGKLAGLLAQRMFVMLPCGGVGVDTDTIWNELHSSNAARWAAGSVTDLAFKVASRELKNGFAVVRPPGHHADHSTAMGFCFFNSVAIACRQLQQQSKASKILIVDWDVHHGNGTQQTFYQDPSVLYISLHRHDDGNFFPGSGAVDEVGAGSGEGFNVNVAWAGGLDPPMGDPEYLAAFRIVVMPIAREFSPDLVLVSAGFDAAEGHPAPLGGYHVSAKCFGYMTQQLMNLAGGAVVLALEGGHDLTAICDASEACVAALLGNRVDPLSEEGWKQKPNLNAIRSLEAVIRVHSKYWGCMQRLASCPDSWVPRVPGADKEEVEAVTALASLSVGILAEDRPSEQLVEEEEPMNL
Sequence of HDAC-11 (Q96DB2 whole entry): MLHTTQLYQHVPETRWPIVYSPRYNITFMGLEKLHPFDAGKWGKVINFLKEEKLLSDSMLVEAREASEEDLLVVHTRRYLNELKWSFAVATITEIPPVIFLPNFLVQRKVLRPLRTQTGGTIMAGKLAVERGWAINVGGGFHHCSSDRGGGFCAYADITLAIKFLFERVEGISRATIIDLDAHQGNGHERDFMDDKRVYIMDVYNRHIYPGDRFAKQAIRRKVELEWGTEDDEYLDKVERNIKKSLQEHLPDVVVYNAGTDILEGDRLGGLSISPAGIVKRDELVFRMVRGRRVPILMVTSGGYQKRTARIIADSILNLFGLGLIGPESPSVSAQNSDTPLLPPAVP
Sequence of HDAC-6 (Q9UBN7 whole entry): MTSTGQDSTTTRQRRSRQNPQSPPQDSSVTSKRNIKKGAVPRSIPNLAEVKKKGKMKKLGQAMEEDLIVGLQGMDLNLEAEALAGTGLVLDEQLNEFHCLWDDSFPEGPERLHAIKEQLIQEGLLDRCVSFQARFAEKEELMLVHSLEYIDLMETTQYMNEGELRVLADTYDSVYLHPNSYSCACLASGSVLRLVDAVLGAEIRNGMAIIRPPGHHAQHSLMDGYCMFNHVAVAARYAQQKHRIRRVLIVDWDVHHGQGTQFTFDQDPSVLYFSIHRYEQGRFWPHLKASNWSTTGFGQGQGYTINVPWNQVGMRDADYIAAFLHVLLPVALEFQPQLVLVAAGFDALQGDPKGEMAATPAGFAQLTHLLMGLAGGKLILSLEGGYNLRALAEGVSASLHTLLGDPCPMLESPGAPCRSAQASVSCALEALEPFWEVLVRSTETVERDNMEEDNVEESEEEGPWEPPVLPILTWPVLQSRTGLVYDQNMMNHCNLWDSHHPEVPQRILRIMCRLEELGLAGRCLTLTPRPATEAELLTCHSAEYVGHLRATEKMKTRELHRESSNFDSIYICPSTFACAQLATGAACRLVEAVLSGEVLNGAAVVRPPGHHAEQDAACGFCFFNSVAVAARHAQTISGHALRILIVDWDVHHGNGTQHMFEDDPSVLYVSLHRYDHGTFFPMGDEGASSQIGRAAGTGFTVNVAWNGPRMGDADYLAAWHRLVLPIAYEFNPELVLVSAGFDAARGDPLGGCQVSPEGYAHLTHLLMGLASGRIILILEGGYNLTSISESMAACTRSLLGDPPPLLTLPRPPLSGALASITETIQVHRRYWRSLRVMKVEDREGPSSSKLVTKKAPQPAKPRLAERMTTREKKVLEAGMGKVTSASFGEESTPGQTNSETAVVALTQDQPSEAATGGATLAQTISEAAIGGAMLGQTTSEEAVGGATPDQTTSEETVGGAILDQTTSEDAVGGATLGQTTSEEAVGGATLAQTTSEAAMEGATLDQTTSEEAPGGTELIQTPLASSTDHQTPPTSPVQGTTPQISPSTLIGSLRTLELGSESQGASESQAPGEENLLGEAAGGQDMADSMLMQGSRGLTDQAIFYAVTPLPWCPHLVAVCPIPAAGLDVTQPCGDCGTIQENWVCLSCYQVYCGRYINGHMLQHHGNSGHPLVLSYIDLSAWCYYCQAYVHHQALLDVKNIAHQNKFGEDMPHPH
Sequence of HDAC-8 (Q9BY41 whole entry): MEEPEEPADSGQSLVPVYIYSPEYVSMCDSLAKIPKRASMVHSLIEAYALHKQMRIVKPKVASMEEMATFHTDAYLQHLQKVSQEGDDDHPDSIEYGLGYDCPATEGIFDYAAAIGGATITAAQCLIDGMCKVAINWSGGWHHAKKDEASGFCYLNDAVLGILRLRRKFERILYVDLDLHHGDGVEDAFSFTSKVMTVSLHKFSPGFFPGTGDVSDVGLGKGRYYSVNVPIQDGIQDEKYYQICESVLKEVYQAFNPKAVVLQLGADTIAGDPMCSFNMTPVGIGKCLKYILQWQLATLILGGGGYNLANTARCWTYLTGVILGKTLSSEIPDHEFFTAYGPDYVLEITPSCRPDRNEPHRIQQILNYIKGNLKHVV
Sequence of HDAC-1 (Q13547 whole entry): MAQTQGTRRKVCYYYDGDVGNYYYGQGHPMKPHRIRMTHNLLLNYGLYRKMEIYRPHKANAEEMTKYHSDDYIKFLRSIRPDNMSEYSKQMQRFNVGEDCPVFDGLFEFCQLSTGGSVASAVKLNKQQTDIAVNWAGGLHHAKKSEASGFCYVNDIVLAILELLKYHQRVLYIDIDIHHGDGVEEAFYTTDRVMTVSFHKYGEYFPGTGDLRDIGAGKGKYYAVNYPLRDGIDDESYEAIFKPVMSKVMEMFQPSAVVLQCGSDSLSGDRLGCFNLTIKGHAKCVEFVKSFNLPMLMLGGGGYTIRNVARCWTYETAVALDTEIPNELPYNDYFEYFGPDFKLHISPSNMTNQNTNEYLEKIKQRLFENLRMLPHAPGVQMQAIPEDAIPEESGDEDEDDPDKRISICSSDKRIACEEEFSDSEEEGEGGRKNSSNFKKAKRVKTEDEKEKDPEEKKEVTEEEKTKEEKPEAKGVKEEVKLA

Compound: Cn1cnc2c(NC3CCCCC3)nc(Nc3ccc(OCCCCCC(=O)NO)cc3)nc21 [Example 9, 6-(4-(6-(cyclohexylamino)-9-methyl-9H-purin-2-ylamino)phenoxy)-N-hydroxyhexanamide]
- IC50 (HDAC-1): 422 nM
- IC50 (HDAC-2): 1640 nM
- IC50 (HDAC-3): 1180 nM
- IC50 (HDAC-8): 225 nM
- IC50 (HDAC-4): > 100000 nM
- IC50 (HDAC-5): > 100000 nM
- IC50 (HDAC-7): > 100000 nM
- IC50 (HDAC-9): > 100000 nM
- IC50 (HDAC-6): 9.8 nM
- IC50 (HDAC-10): 284 nM
- IC50 (HDAC-11): 159 nM

Compound: CCc1cccc(CC)c1NC(=O)c1nn(C)c2c1CCc1cnc(Nc3ccc(C(=O)NC4CCN(C)CC4)cc3OC(F)(F)F)nc1-2 [NMS-P715]
- efficacy in an ovarian xenograft (ovarian xenograft): promising efficacies

Compound: Oc1c2ccccc2c2c3c(cccc13)N=N2 [SP600125]
- IC50 (TTK/Mps1): 250 nM
